Assay results taken from ChEMBL document CHEMBL1146635 (Bioorg Med Chem Lett, 2003).

Test system: not listed separately
Assay: Plasma clearance in human liver microsomes
Type: ADME, Microsome
Conditions: not given

Structure (SMILES)	CLint scaled [mL/min/kg]
O=C(N[C@H]1c2ccccc2OC[C@H]1O)[C@H](Cc1cccnc1)C[C@H](O)CN1CCN(Cc2ccn(-c3ccc(F)c(F)c3F)c2)C[C@H]1C(=O)NCC(F)(F)F	218
O=C(N[C@H]1c2ccccc2OC[C@H]1O)[C@H](Cc1cccnc1)C[C@H](O)CN1CCN(Cc2ccn(-c3cccc(Cl)c3)c2)C[C@H]1C(=O)NCC(F)(F)F	307
O=C(N[C@H]1c2ccccc2OC[C@H]1O)[C@H](Cc1cccnc1)C[C@H](O)CN1CCN(Cc2ccn(-c3ccc(Cl)cc3)c2)C[C@H]1C(=O)NCC(F)(F)F	229
O=C(N[C@H]1c2ccccc2OC[C@H]1O)[C@H](Cc1cccnc1)C[C@H](O)CN1CCN(Cc2ccc(-c3ccccc3)o2)C[C@H]1C(=O)NCC(F)(F)F	238
O=C(N[C@H]1c2ccccc2OC[C@H]1O)[C@H](Cc1cccnc1)C[C@H](O)CN1CCN(Cc2ccn(-c3ccccc3)c2)C[C@H]1C(=O)NCC(F)(F)F	332

Test system: not listed separately
Assay: Cmax value determined in dog at a dose of 10 mg/kg by oral administration
Type: ADME, organism-based, Canis lupus familiaris
Set-up: dose 10 mg/kg, route oral
Conditions: in vivo

Structure (SMILES)	Cmax [µM]
O=C(N[C@H]1c2ccccc2OC[C@H]1O)[C@H](Cc1cccnc1)C[C@H](O)CN1CCN(Cc2ccn(-c3ccc(F)c(F)c3F)c2)C[C@H]1C(=O)NCC(F)(F)F	1.9
O=C(N[C@H]1c2ccccc2OC[C@H]1O)[C@H](Cc1cccnc1)C[C@H](O)CN1CCN(Cc2ccn(-c3ccccc3)c2)C[C@H]1C(=O)NCC(F)(F)F	5.3

Test system: not listed separately
Assay: Cmax value determined in dog at a dose of 5 mg/kg by oral administration
Type: ADME, organism-based, Canis lupus familiaris
Set-up: dose 5 mg/kg, route oral
Conditions: in vivo

Structure (SMILES)	Cmax [nM]
O=C(N[C@H]1c2ccccc2OC[C@H]1O)[C@H](Cc1cccnc1)C[C@H](O)CN1CCN(Cc2ccc(-c3ccccc3)o2)C[C@H]1C(=O)NCC(F)(F)F	100

Test system: not listed separately
Assay: Area under curve determined in dog at a dose of 10 mg/kg by oral administration
Type: ADME, organism-based, Canis lupus familiaris
Set-up: dose 10 mg/kg, route oral
Conditions: in vivo

Structure (SMILES)	AUC [µM·h]
O=C(N[C@H]1c2ccccc2OC[C@H]1O)[C@H](Cc1cccnc1)C[C@H](O)CN1CCN(Cc2ccn(-c3ccc(F)c(F)c3F)c2)C[C@H]1C(=O)NCC(F)(F)F	4.4
O=C(N[C@H]1c2ccccc2OC[C@H]1O)[C@H](Cc1cccnc1)C[C@H](O)CN1CCN(Cc2ccn(-c3ccccc3)c2)C[C@H]1C(=O)NCC(F)(F)F	7

Biological target: Cytochrome P450 3A4 (Homo sapiens, UniProt P08684)
Sequence (P08684 whole entry): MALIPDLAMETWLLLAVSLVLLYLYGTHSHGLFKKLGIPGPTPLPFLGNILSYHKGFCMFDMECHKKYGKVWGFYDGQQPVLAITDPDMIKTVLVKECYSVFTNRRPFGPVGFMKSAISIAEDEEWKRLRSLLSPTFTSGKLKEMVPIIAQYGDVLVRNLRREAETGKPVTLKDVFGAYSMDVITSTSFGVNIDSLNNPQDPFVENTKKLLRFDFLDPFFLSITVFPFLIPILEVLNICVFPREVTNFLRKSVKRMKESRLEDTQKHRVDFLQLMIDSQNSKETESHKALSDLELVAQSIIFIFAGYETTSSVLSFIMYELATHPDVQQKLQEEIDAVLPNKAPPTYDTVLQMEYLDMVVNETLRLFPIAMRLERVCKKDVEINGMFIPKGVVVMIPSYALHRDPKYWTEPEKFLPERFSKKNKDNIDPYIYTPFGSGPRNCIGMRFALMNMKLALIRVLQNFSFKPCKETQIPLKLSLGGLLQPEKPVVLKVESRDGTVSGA
Assay: In vitro inhibition of Cytochrome P450 3A4
Type: ADME
Conditions: not given

Structure (SMILES)	IC50 [nM]
O=C(N[C@H]1c2ccccc2OC[C@H]1O)[C@H](Cc1cccnc1)C[C@H](O)CN1CCN(Cc2ccn(-c3ccc(F)c(F)c3F)c2)C[C@H]1C(=O)NCC(F)(F)F	50
O=C(N[C@H]1c2ccccc2OC[C@H]1O)[C@H](Cc1cccnc1)C[C@H](O)CN1CCN(Cc2ccn(-c3cccc(Cl)c3)c2)C[C@H]1C(=O)NCC(F)(F)F	80
O=C(N[C@H]1c2ccccc2OC[C@H]1O)[C@H](Cc1cccnc1)C[C@H](O)CN1CCN(Cc2ccn(-c3ccc(Cl)cc3)c2)C[C@H]1C(=O)NCC(F)(F)F	50
O=C(N[C@H]1c2ccccc2OC[C@H]1O)[C@H](Cc1cccnc1)C[C@H](O)CN1CCN(Cc2ccn(-c3ccccc3)c2)C[C@H]1C(=O)NCC(F)(F)F	400

Biological target: Cytochrome P450 2D6 (Homo sapiens, UniProt P10635)
Sequence (P10635 whole entry): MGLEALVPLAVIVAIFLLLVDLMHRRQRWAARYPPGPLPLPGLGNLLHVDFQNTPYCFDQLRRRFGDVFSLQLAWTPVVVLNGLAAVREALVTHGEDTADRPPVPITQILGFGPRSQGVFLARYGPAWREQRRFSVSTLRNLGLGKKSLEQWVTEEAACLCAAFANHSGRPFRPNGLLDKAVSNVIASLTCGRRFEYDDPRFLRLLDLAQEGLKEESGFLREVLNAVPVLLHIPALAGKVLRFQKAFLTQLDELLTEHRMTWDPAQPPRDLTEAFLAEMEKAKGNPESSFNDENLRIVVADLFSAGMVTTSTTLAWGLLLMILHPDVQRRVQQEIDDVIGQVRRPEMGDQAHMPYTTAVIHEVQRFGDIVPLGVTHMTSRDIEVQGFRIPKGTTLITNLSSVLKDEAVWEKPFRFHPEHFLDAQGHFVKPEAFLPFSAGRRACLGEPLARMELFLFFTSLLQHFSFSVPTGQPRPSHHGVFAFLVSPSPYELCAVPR
Assay: In vitro inhibition of Cytochrome P450 2D6
Type: ADME
Conditions: not given

Structure (SMILES)	IC50 [µM]
O=C(N[C@H]1c2ccccc2OC[C@H]1O)[C@H](Cc1cccnc1)C[C@H](O)CN1CCN(Cc2ccn(-c3ccccc3)c2)C[C@H]1C(=O)NCC(F)(F)F	12

Test system: Human immunodeficiency virus 1
Assay: Viral spread inhibitory concentration against HIV-1 strain K-60C in MT-4 human T-lymphoid cells
Type: functional
Conditions: Human immunodeficiency virus 1, T-lymphoid; read-out: CIC95

Structure (SMILES)	IC95 [µM]
O=C(N[C@H]1c2ccccc2OC[C@H]1O)[C@H](Cc1cccnc1)C[C@H](O)CN1CCN(Cc2ccn(-c3ccc(F)c(F)c3F)c2)C[C@H]1C(=O)NCC(F)(F)F	0.015
O=C(N[C@H]1c2ccccc2OC[C@H]1O)[C@H](Cc1cccnc1)C[C@H](O)CN1CCN(Cc2ccn(-c3cccc(Cl)c3)c2)C[C@H]1C(=O)NCC(F)(F)F	≤ 0.008
O=C(N[C@H]1c2ccccc2OC[C@H]1O)[C@H](Cc1cccnc1)C[C@H](O)CN1CCN(Cc2ccn(-c3ccc(Cl)cc3)c2)C[C@H]1C(=O)NCC(F)(F)F	0.015
O=C(N[C@H]1c2ccccc2OC[C@H]1O)[C@H](Cc1cccnc1)C[C@H](O)CN1CCN(Cc2ccc(-c3ccccc3)o2)C[C@H]1C(=O)NCC(F)(F)F	≤ 0.008
O=C(N[C@H]1c2ccccc2OC[C@H]1O)[C@H](Cc1cccnc1)C[C@H](O)CN1CCN(Cc2ccn(-c3ccccc3)c2)C[C@H]1C(=O)NCC(F)(F)F	0.031

Test system: Human immunodeficiency virus 1
Assay: Viral spread inhibitory concentration against HIV-1 strain NL4-3 in MT-4 human T-lymphoid cells
Type: functional
Conditions: Human immunodeficiency virus 1, T-lymphoid; read-out: CIC95

Structure (SMILES)	IC95 [nM]
O=C(N[C@H]1c2ccccc2OC[C@H]1O)[C@H](Cc1cccnc1)C[C@H](O)CN1CCN(Cc2ccn(-c3ccc(F)c(F)c3F)c2)C[C@H]1C(=O)NCC(F)(F)F	≤ 8
O=C(N[C@H]1c2ccccc2OC[C@H]1O)[C@H](Cc1cccnc1)C[C@H](O)CN1CCN(Cc2ccn(-c3cccc(Cl)c3)c2)C[C@H]1C(=O)NCC(F)(F)F	≤ 8
O=C(N[C@H]1c2ccccc2OC[C@H]1O)[C@H](Cc1cccnc1)C[C@H](O)CN1CCN(Cc2ccn(-c3ccc(Cl)cc3)c2)C[C@H]1C(=O)NCC(F)(F)F	≤ 8
O=C(N[C@H]1c2ccccc2OC[C@H]1O)[C@H](Cc1cccnc1)C[C@H](O)CN1CCN(Cc2ccc(-c3ccccc3)o2)C[C@H]1C(=O)NCC(F)(F)F	≤ 8
O=C(N[C@H]1c2ccccc2OC[C@H]1O)[C@H](Cc1cccnc1)C[C@H](O)CN1CCN(Cc2ccn(-c3ccccc3)c2)C[C@H]1C(=O)NCC(F)(F)F	15

Test system: Human immunodeficiency virus 1
Assay: Viral spread inhibitory concentration against HIV-1 strain Q-60C in MT-4 human T-lymphoid cells
Type: functional
Conditions: Human immunodeficiency virus 1, T-lymphoid; read-out: CIC95

Structure (SMILES)	IC95 [nM]
O=C(N[C@H]1c2ccccc2OC[C@H]1O)[C@H](Cc1cccnc1)C[C@H](O)CN1CCN(Cc2ccn(-c3ccc(F)c(F)c3F)c2)C[C@H]1C(=O)NCC(F)(F)F	≤ 8
O=C(N[C@H]1c2ccccc2OC[C@H]1O)[C@H](Cc1cccnc1)C[C@H](O)CN1CCN(Cc2ccn(-c3cccc(Cl)c3)c2)C[C@H]1C(=O)NCC(F)(F)F	≤ 8
O=C(N[C@H]1c2ccccc2OC[C@H]1O)[C@H](Cc1cccnc1)C[C@H](O)CN1CCN(Cc2ccn(-c3ccc(Cl)cc3)c2)C[C@H]1C(=O)NCC(F)(F)F	≤ 8
O=C(N[C@H]1c2ccccc2OC[C@H]1O)[C@H](Cc1cccnc1)C[C@H](O)CN1CCN(Cc2ccc(-c3ccccc3)o2)C[C@H]1C(=O)NCC(F)(F)F	≤ 8
O=C(N[C@H]1c2ccccc2OC[C@H]1O)[C@H](Cc1cccnc1)C[C@H](O)CN1CCN(Cc2ccn(-c3ccccc3)c2)C[C@H]1C(=O)NCC(F)(F)F	≤ 8

Test system: MT4
Assay: Viral spread inhibitory concentration against HIV-1 strain V-18C in MT-4 human T-lymphoid cells
Type: functional
Conditions: read-out: CIC95

Structure (SMILES)	IC95 [nM]
O=C(N[C@H]1c2ccccc2OC[C@H]1O)[C@H](Cc1cccnc1)C[C@H](O)CN1CCN(Cc2ccn(-c3ccc(F)c(F)c3F)c2)C[C@H]1C(=O)NCC(F)(F)F	≤ 8
O=C(N[C@H]1c2ccccc2OC[C@H]1O)[C@H](Cc1cccnc1)C[C@H](O)CN1CCN(Cc2ccn(-c3cccc(Cl)c3)c2)C[C@H]1C(=O)NCC(F)(F)F	≤ 8
O=C(N[C@H]1c2ccccc2OC[C@H]1O)[C@H](Cc1cccnc1)C[C@H](O)CN1CCN(Cc2ccn(-c3ccc(Cl)cc3)c2)C[C@H]1C(=O)NCC(F)(F)F	≤ 8
O=C(N[C@H]1c2ccccc2OC[C@H]1O)[C@H](Cc1cccnc1)C[C@H](O)CN1CCN(Cc2ccc(-c3ccccc3)o2)C[C@H]1C(=O)NCC(F)(F)F	≤ 8
O=C(N[C@H]1c2ccccc2OC[C@H]1O)[C@H](Cc1cccnc1)C[C@H](O)CN1CCN(Cc2ccn(-c3ccccc3)c2)C[C@H]1C(=O)NCC(F)(F)F	≤ 8

Biological target: T1, Human immunodeficiency virus type 1 protease (Human immunodeficiency virus 1, UniProt Q72874)
Assay: Inhibitory activity against HIV-1 protease (K-60C strain)
Conditions: not given

Structure (SMILES)	IC50 [nM]
O=C(N[C@H]1c2ccccc2OC[C@H]1O)[C@H](Cc1cccnc1)C[C@H](O)CN1CCN(Cc2ccc(-c3ccccc3)o2)C[C@H]1C(=O)NCC(F)(F)F	0.06
O=C(N[C@H]1c2ccccc2OC[C@H]1O)[C@H](Cc1cccnc1)C[C@H](O)CN1CCN(Cc2ccn(-c3ccccc3)c2)C[C@H]1C(=O)NCC(F)(F)F	2.7

Biological target: T1, Human immunodeficiency virus type 1 protease
Assay: In vitro inhibition of HIV-1 protease (NL4-3 strain).
Conditions: not given

Structure (SMILES)	IC50 [nM]
O=C(N[C@H]1c2ccccc2OC[C@H]1O)[C@H](Cc1cccnc1)C[C@H](O)CN1CCN(Cc2ccn(-c3ccc(F)c(F)c3F)c2)C[C@H]1C(=O)NCC(F)(F)F	0.05
O=C(N[C@H]1c2ccccc2OC[C@H]1O)[C@H](Cc1cccnc1)C[C@H](O)CN1CCN(Cc2ccn(-c3cccc(Cl)c3)c2)C[C@H]1C(=O)NCC(F)(F)F	0.05
O=C(N[C@H]1c2ccccc2OC[C@H]1O)[C@H](Cc1cccnc1)C[C@H](O)CN1CCN(Cc2ccn(-c3ccc(Cl)cc3)c2)C[C@H]1C(=O)NCC(F)(F)F	0.03
O=C(N[C@H]1c2ccccc2OC[C@H]1O)[C@H](Cc1cccnc1)C[C@H](O)CN1CCN(Cc2ccn(-c3ccccc3)c2)C[C@H]1C(=O)NCC(F)(F)F	0.11

Biological target: T1, Human immunodeficiency virus type 1 protease
Assay: Inhibitory activity against HIV-1 protease (Q-60C strain)
Conditions: not given

Structure (SMILES)	IC50 [nM]
O=C(N[C@H]1c2ccccc2OC[C@H]1O)[C@H](Cc1cccnc1)C[C@H](O)CN1CCN(Cc2ccc(-c3ccccc3)o2)C[C@H]1C(=O)NCC(F)(F)F	0.07

Biological target: T1, Human immunodeficiency virus type 1 protease
Assay: Inhibitory activity against HIV-1 protease (V-18C strain)
Conditions: not given

Structure (SMILES)	IC50 [nM]
O=C(N[C@H]1c2ccccc2OC[C@H]1O)[C@H](Cc1cccnc1)C[C@H](O)CN1CCN(Cc2ccc(-c3ccccc3)o2)C[C@H]1C(=O)NCC(F)(F)F	0.15
O=C(N[C@H]1c2ccccc2OC[C@H]1O)[C@H](Cc1cccnc1)C[C@H](O)CN1CCN(Cc2ccn(-c3ccccc3)c2)C[C@H]1C(=O)NCC(F)(F)F	2.49

Test system: Canis familiaris
Assay: Cmax value determined in dog at a dose of 10 mg/kg by oral administration along with indinavir (10 mg/kg)
Conditions: in vivo

Structure (SMILES)	Cmax [µM]
O=C(N[C@H]1c2ccccc2OC[C@H]1O)[C@H](Cc1cccnc1)C[C@H](O)CN1CCN(Cc2ccc(-c3ccccc3)o2)C[C@H]1C(=O)NCC(F)(F)F	6.1

Test system: not listed separately
Assay: Area under curve determined in dog at a dose of 10 mg/kg by oral administration along with […] (10 mg/kg)
Conditions: in vivo

Structure (SMILES)	AUC [µM·h]
O=C(N[C@H]1c2ccccc2OC[C@H]1O)[C@H](Cc1cccnc1)C[C@H](O)CN1CCN(Cc2ccn(-c3ccc(F)c(F)c3F)c2)C[C@H]1C(=O)NCC(F)(F)F	26.6
